Reference: ChEMBL document CHEMBL1909514, “Imidazo[2,1-b]thiazole guanylhydrazones as RSK2 inhibitors” (Eur J Med Chem, 2011)
Calls of active or inactive are those of the source. The rule behind the calls is not given here.

Tests used:
[1] = molecular target: T1, Aurora kinase A (Homo sapiens) (UniProt O14965); assay: Inhibition of Aurora kinase A assessed as inhibition of substrate phosphorylation using fluorescent peptide substrate up to 100 uM by microplate reader assay
T1 sequence (whole entry): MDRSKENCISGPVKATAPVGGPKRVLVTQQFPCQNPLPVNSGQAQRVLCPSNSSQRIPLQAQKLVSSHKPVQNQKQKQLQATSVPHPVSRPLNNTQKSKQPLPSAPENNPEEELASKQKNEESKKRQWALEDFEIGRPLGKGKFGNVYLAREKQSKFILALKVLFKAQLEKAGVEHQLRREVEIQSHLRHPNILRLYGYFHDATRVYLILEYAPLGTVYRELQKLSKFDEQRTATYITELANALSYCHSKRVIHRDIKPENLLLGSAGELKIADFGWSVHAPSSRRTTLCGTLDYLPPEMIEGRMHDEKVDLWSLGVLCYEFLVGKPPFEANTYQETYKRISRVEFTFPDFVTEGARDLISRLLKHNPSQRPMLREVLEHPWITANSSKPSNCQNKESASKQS

[2] = molecular target: Serine/threonine-protein kinase Chk2 (Homo sapiens, UniProt O96017)
Serine/threonine-protein kinase Chk2, sequence (O96017 whole entry): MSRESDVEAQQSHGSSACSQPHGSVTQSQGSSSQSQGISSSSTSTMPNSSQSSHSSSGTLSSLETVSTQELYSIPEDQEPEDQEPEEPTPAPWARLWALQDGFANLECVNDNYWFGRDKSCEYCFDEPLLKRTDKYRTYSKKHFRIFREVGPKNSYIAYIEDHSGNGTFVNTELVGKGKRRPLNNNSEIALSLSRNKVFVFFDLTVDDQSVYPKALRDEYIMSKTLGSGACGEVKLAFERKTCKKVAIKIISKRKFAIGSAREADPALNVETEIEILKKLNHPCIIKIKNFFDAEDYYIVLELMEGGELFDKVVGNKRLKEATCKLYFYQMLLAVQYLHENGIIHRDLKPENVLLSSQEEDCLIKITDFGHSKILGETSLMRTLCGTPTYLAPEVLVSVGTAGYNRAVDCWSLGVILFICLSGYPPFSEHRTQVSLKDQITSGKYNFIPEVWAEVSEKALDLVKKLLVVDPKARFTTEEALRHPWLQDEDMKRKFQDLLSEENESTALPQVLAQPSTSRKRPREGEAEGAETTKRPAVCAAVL
Description: Inhibition of CHK2 assessed as inhibition of substrate phosphorylation using fluorescent peptide substrate by microplate reader assay

[3] = molecular target: Ribosomal protein S6 kinase alpha-3 (Homo sapiens, UniProt P51812)
Ribosomal protein S6 kinase alpha-3, sequence (P51812 whole entry): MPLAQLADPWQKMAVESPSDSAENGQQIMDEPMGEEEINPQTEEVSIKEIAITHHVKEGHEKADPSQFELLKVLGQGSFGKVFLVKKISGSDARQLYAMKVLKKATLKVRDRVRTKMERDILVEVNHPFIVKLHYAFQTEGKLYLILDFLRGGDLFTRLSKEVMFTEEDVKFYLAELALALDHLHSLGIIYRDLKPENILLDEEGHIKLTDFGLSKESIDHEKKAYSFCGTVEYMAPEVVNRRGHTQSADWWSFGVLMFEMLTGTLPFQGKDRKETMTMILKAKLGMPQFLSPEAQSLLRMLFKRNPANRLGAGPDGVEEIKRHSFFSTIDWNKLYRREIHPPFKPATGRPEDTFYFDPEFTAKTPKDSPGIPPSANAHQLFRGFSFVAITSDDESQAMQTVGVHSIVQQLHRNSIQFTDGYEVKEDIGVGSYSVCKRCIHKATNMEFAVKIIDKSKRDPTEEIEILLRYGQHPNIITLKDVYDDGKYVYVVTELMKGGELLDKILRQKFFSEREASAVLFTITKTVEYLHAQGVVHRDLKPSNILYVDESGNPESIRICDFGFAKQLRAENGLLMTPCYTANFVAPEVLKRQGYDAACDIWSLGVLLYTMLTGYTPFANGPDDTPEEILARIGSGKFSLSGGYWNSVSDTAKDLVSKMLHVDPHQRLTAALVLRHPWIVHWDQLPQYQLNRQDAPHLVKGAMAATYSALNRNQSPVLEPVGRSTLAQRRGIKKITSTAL
Description: Inhibition of RSK2 assessed as inhibition of substrate phosphorylation using fluorescent peptide substrate by microplate reader assay

[4] = molecular target: T2, Serine/threonine-protein kinase Chk1 (Homo sapiens, UniProt O14757)
T2 sequence (O14757 whole entry): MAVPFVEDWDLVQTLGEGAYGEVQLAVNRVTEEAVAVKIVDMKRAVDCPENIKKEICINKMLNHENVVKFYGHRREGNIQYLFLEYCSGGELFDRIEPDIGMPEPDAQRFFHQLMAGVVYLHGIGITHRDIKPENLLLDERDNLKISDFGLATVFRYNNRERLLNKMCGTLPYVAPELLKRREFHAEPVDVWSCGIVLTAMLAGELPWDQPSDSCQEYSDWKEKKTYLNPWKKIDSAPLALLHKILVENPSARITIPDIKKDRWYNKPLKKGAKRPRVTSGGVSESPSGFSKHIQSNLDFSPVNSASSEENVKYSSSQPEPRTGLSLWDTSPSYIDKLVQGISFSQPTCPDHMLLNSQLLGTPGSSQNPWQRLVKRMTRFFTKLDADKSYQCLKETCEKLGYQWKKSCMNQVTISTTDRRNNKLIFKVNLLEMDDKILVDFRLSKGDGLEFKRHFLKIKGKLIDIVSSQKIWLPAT
Description: Inhibition of CHK1 assessed as inhibition of substrate phosphorylation using fluorescent peptide substrate by microplate reader assay

SMILES | inhibition [1] | IC50 [2] [µM] | IC50 [3] [µM] | IC50 [4] [µM]
Cc1nn2c(/C=N/NC3=NCCN3)c(-c3ccc(Cl)c([N+](=O)[O-])c3)nc2s1 | inactive | > 20 | > 100 | –
Clc1cc(-c2cn3c(n2)sc2ccccc23)c(Cl)s1 | inactive | – | – | –
O=Cc1c(-c2ccccc2F)nc2sccn12 | inactive | – | – | –
Cc1csc2nc(-c3ccc(Cl)c([N+](=O)[O-])c3)c(/C=N/NC(=N)N)n12 | – | 84.4 | 44.8 | > 100
O=Cc1c(-c2ccc(F)c([N+](=O)[O-])c2)nc2sccn12 | inactive | – | – | –
CCCc1cn2c(/C=N/NC(=N)N)c(-c3cc([N+](=O)[O-])c(Cl)cc3Cl)nc2s1 | – | > 100 | 5.97 | > 100
Clc1cc(-c2cn3cc(Cl)sc3n2)c(Cl)s1 | inactive | – | – | –
COc1cc([N+](=O)[O-])c(OC)cc1-c1cn2nc(C)sc2n1 | inactive | – | – | –
O=[N+]([O-])c1cccc(-c2cn3ccsc3n2)c1F | inactive | – | – | –
Cc1cn2c(/C=N/NC(=N)N)c(-c3cc([N+](=O)[O-])c(Cl)cc3Cl)nc2s1 | – | > 100 | 4.53 | > 100
Cc1cn2c(C=O)c(-c3ccc(F)cc3)nc2s1 | inactive | – | – | –
N=C(N)N/N=C/c1c(-c2ccc(Cl)c([N+](=O)[O-])c2)nc2sc3ccccc3n12 | – | > 100 | 7.32 | > 100
O=Cc1c(-c2ccc(Br)c([N+](=O)[O-])c2)nc2sccn12 | inactive | – | – | –
COc1cc([N+](=O)[O-])c(OC)cc1-c1nc2sc3ccccc3n2c1C=O | inactive | – | – | –
N=C(N)N/N=C/c1c(-c2ccccc2)nc2sc(Cl)cn12 | inactive | > 100 | > 100 | –
COc1cc([N+](=O)[O-])c(OC)cc1-c1nc2ccccn2c1C=O | inactive | – | – | –
Cc1sc2nc(-c3ccc(Cl)c([N+](=O)[O-])c3)c(/C=N/NC(=N)N)n2c1C | – | 48.5 | 13.9 | > 100
N=C(N)N/N=C/c1c(-c2cccc([N+](=O)[O-])c2)nc2sccn12 | – | > 100 | 18.5 | > 100
Cc1cn2cc(-c3ccc(F)cc3)nc2s1 | inactive | – | – | –
O=Cc1c(-c2cccc([N+](=O)[O-])c2F)nc2sccn12 | inactive | – | – | –
Cc1cn2c(/C=N/NC(=N)N)c(-c3cc(Cl)sc3Cl)nc2s1 | – | > 100 | 26.5 | > 100
Cc1nn2c(C=O)c(-c3cc(Cl)sc3Cl)nc2s1 | inactive | – | – | –
Clc1cc(-c2cn3ccccc3n2)c(Cl)s1 | inactive | – | – | –
N=C(N)N/N=C\c1c(-c2c(F)cccc2F)nc2sccn12 | inactive | > 100 | > 100 | –
Cc1nn2c(/C=N/NC(=N)N)c(-c3cc(Cl)sc3Cl)nc2s1 | inactive | > 20 | > 100 | –
Cc1cn2c(/C=N/NC(=N)N)c(-c3ccc(Cl)c([N+](=O)[O-])c3)nc2s1 | – | 64.8 | 3.76 | > 100

SMILES | inhibition [1] | IC50 [2] [µM] | IC50 [3] [µM] | IC50 [4] [µM]
Fc1ccccc1-c1cn2ccsc2n1 | inactive | – | – | –
O=Cc1c(-c2ccc(F)cc2)nc2sc(Cl)cn12 | inactive | – | – | –
N#Cc1ccc(-c2cn3cc(Cl)sc3n2)cc1 | inactive | – | – | –
N=C(N)N/N=C\c1c(-c2cc(F)c(F)cc2F)nc2sccn12 | inactive | > 100 | > 100 | –
N#Cc1ccc(-c2nc3sc(Cl)cn3c2C=O)cc1 | inactive | – | – | –
O=[N+]([O-])c1cc(-c2cn3ccsc3n2)ccc1Br | inactive | – | – | –
Nc1nn2c(C=O)c(-c3ccccc3)nc2s1 | inactive | – | – | –
N=C(N)N/N=C\c1c(-c2ccccc2F)nc2sccn12 | inactive | > 100 | > 100 | –
COc1cc([N+](=O)[O-])c(OC)cc1-c1nc2sc(C)nn2c1/C=N\NC(=N)N | inactive | > 20 | > 100 | –
N=C(N)N/N=C/c1c(-c2ccc(N)cc2)nc2sccn12 | – | 67.5 | 3 | > 100
COc1cc([N+](=O)[O-])c(OC)cc1-c1nc2sc(C)nn2c1C=O | inactive | – | – | –
Fc1ccc(-c2cn3cc(Cl)sc3n2)cc1 | inactive | – | – | –
Cc1sc2nc(-c3cccnc3)c(/C=N/NC(=N)N)n2c1C | – | 6.58 | 100 | > 100
Cc1cn2c(C=O)c(-c3ccc(F)c([N+](=O)[O-])c3)nc2s1 | inactive | – | – | –
N=C(N)N/N=C/c1c(-c2ccc(Cl)cc2)nc2sc(Cl)cn12 | – | 49.3 | 14 | > 7900
O=Cc1c(-c2cc(F)c(F)cc2F)nc2sccn12 | inactive | – | – | –
Clc1cc(-c2nc3sc(Cl)cn3c2/C=N/NC2=NCCN2)c(Cl)s1 | inactive | > 20 | > 100 | –
O=[N+]([O-])c1cc(-c2cn3ccsc3n2)ccc1F | inactive | – | – | –
N=C(N)N/N=C\c1c(-c2ccccc2)nc2sc(N)nn12 | inactive | – | – | –
CCCc1cn2c(/C=N/NC(=N)N)c(-c3cccc([N+](=O)[O-])c3)nc2s1 | – | 69.5 | 13.2 | > 100
Cc1sc2nc(-c3cc([N+](=O)[O-])c(Cl)cc3Cl)c(/C=N/NC(=N)N)n2c1C | – | > 100 | 98.5 | –
COc1cc([N+](=O)[O-])c(OC)cc1-c1nc2sccn2c1/C=N/NC(=N)N | – | 96 | 3.58 | > 100
O=Cc1c(-c2ccc(F)cc2)nc2sccn12 | inactive | – | – | –
N=C(N)N/N=C/c1c(-c2cccc([N+](=O)[O-])c2)nc2sc(Cl)cn12 | – | > 100 | 6.03 | > 100
N=C(N)N/N=C/c1c(-c2cc(Cl)sc2Cl)nc2sccn12 | – | 65 | 79 | > 100
O=[N+]([O-])c1cc(-c2cn3cc(Cl)sc3n2)ccc1F | inactive | – | – | –

SMILES | inhibition [1] | IC50 [2] [µM] | IC50 [3] [µM] | IC50 [4] [µM]
O=Cc1c(-c2cc(Cl)sc2Cl)nc2sc(Cl)cn12 | inactive | – | – | –
N=C(N)N/N=C\c1c(-c2cccc([N+](=O)[O-])c2F)nc2sccn12 | inactive | > 100 | > 100 | –
O=Cc1c(-c2cc(Cl)sc2Cl)nc2sc3ccccc3n12 | inactive | – | – | –
O=Cc1c(-c2cc(Cl)sc2Cl)nc2ccccn12 | inactive | – | – | –
O=[N+]([O-])c1ccc(-c2cn3cc(Br)sc3n2)cc1 | inactive | – | – | –
O=Cc1c(-c2ccc(F)c(F)c2)nc2sccn12 | inactive | – | – | –
O=Cc1c(-c2ccc(F)c([N+](=O)[O-])c2)nc2sc(Cl)cn12 | inactive | – | – | –
Cc1cn2cc(-c3ccc(F)c([N+](=O)[O-])c3)nc2s1 | inactive | – | – | –
N=C(N)N/N=C\c1c(-c2ccc(F)c(F)c2)nc2sccn12 | inactive | > 100 | > 100 | –
Fc1cccc(F)c1-c1cn2ccsc2n1 | inactive | – | – | –
O=[N+]([O-])c1ccc(-c2cn3cc(F)sc3n2)cc1 | inactive | – | – | –
Clc1cc(-c2nc3ccccn3c2/C=N/NC2=NCCN2)c(Cl)s1 | inactive | > 20 | > 100 | –
Cc1nn2cc(-c3cc(Cl)sc3Cl)nc2s1 | inactive | – | – | –
Fc1cc(F)c(-c2cn3ccsc3n2)cc1F | inactive | – | – | –
N=C(N)N/N=C\c1c(-c2cccc(C(F)(F)F)c2)nc2sccn12 | inactive | > 100 | > 100 | –
COc1cc([N+](=O)[O-])c(OC)cc1-c1cn2c(n1)sc1ccccc12 | inactive | – | – | –
N=C(N)N/N=C/c1c(-c2cc(Cl)sc2Cl)nc2ccccn12 | inactive | > 20 | > 100 | –
O=Cc1c(-c2ccc([N+](=O)[O-])cc2)nc2sc(Br)cn12 | inactive | – | – | –
Clc1cc(-c2nc3sc4ccccc4n3c2/C=N/NC2=NCCN2)c(Cl)s1 | inactive | > 100 | > 100 | –
COc1cc([N+](=O)[O-])c(OC)cc1-c1cn2ccccc2n1 | inactive | – | – | –
Cc1nn2c(/C=N/NC(=N)N)c(-c3ccc(Cl)c([N+](=O)[O-])c3)nc2s1 | – | 78 | 94 | –
Fc1ccc(-c2cn3ccsc3n2)cc1F | inactive | – | – | –
O=Cc1c(-c2c(F)cccc2F)nc2sccn12 | inactive | – | – | –
O=Cc1c(-c2ccc([N+](=O)[O-])cc2)nc2sc(F)cn12 | inactive | – | – | –
